Results: ChEMBL document CHEMBL5154876, “Design, synthesis and promising anti-tumor efficacy of novel imidazo[1,2-a]pyridine derivatives as potent autotaxin allosteric inhibitors” (Eur J Med Chem, 2022)
Active and inactive are the calls of the source. No cut-off for these calls is given here.

How the values were obtained:
RAW264.7 [1] = assay: Induction of cell cycle arrest in mouse RAW264.7 cells assessed as accumulation of cells in G2 phase at 0.5 uM incubated for 24 hrs by PI/RNase staining based flow cytometric analysis (RVB = 10.90%); assay type: functional
RAW264.7 [2] = assay: Induction of apoptosis in mouse RAW264.7 cells assessed as viable cells at 0.1 uM after 48 hrs by Annexin V-FITC/PI based flow cytometric analysis (RVB=94.1%); assay type: functional; conditions: read-out: Activity
MCF7 = assay: Cytotoxicity against human MCF-7 cells assessed as inhibition of cell growth incubated for 72 hrs by MTT assay; assay type: functional, cell-based; conditions: MCF7, 72 h
RAW264.7 [3] = assay: Induction of apoptosis in mouse RAW264.7 cells assessed as late apoptotic cells at 0.1 uM after 48 hrs by Annexin V-FITC/PI based flow cytometric analysis (RVB=0.098%); assay type: functional
RAW264.7 [4] = assay: Induction of cell cycle arrest in mouse RAW264.7 cells assessed as accumulation of cells in G1 phase at 1 uM incubated for 24 hrs by PI/RNase staining based flow cytometric analysis (RVB = 55.06%); assay type: functional
RAW264.7 [5] = assay: Induction of cell cycle arrest in mouse RAW264.7 cells assessed as accumulation of cells in S phase at 0.25 uM incubated for 24 hrs by PI/RNase staining based flow cytometric analysis (RVB = 34.03%); assay type: functional
RAW264.7 [6] = assay: Induction of apoptosis in mouse RAW264.7 cells assessed as late apoptotic cells at 0.5 uM after 48 hrs by Annexin V-FITC/PI based flow cytometric analysis (RVB=0.098%); assay type: functional
RAW264.7 [7] = assay: Inhibition of colony formation in mouse RAW264.7 cells assessed as reduction in colony single area at 0.1 to 1 uM incubated for 72 hrs by crystal violet staining method; assay type: functional, cell-based; conditions: dose 0.1-1 µM
Autotaxin = Autotaxin (Homo sapiens, UniProt Q13822); assay: Negative allosteric modulation activity against human ATX using FS-3 as substrate preincubated for 45 mins followed by substrate addition and measured every 30 mins by multi-mode microplate reader
RAW264.7 [8] = assay: Antimigratory activity against mouse RAW264.7 cells assessed as decrease in cell migration rate measured upto 72 hrs by scratch wound healing assay; assay type: functional, cell-based; conditions: DDE = dose-dependent effect
RAW264.7 [9] = assay: Induction of cell cycle arrest in mouse RAW264.7 cells assessed as accumulation of cells in G1 phase at 0.5 uM incubated for 24 hrs by PI/RNase staining based flow cytometric analysis (RVB = 55.06%); assay type: functional

CCc1nc2c(C)cc(-c3ccc(CN4CCN(CCO)CC4)cc3)cn2c1NC(=O)OCc1cc(Cl)cc(Cl)c1
Activity (RAW264.7 [1]): 74.09% | viability at 0.1 µM (RAW264.7 [2]): 92.8% | IC50 (MCF7): 3.87 µM | Activity (RAW264.7 [3]): 0.44% | Activity (RAW264.7 [4]): 7.22% | Activity (RAW264.7 [5]): 18.57% | Activity (RAW264.7 [6]): 0.95% | inhibition (RAW264.7 [7]): Active | IC50 (Autotaxin): 0.0034 µM | Activity (RAW264.7 [8]): Dde | Activity (RAW264.7 [9]): 21.13%
